From patent publication US11512821B2, “Systems and method for evaluating ultraviolet-protection products” (ABICH INC., priority 2019, dated 2022)
Read-outs that look alike come from different tables or passages of the source.

How the values were obtained:
[1] = test system: CD86 (B7.2); conditions: for CD86 % compared to CN: THP-1, 24 h; for CD86 MFI: THP-1, 24 h at 37° C.
Source text: (§1) The purpose of the test is to assess the absence of pro-sensitizing skin effects from finished products or raw materials intended for contact with the skin or mucous membranes, such as medical devices, cosmetics, toys or textiles. In the present study, we used a human monocytes cell line (THP-1) as prototypic blood-derived immunologically active cell. On these cells, we tested the expression of two costimulatory molecules, CD54 (Intercellular Adhesion Molecule) and CD86 (B7.2), using as a positive control Nickel sulphate, a well-known contact sensitizing agent. Nickel sulphate is able to cause in vivo allergic immune reactions (skin sensitization) and it is also been widely used to study in vitro immune response modulation. As silicone elastomer (Silicone 30A—example of medical grade silicone) was tested at two concentrations, against Nickel positive controls.
(§2) The increasing expression level of CD54 and CD86 on monocytes is a signal of activation of the immune response derived from the exposition to a potentially sensitizing contact antigen. The expression of co-stimulatory molecules on the dendritic cells means activation of the immunological response in terms of capability to present the antigen in the typical tissues (skin in this case), where, in vivo, the immune protective response is triggered.
(§3) The normative reference is OECD Guideline 442E, “In vitro Skin Sensitization; Human Cell Line Activation Test (hCLAT)”, which is hereby incorporated by reference in its entirety. The method differs from the OECD Guideline as the test is performed in a single experimental session instead of three independent tests. As positive control, Nickel Sulfate is used instead of DNCB. […] In addition, the acceptance criteria and choice of concentrations to be used in the final test have been optimized according to the laboratory's historical results over the past 10 years.
(§4) The test is carried out on a monocyte-like human line called THP-1. Cells are kept in RPMI containing 10% FCS and 2 mM glutamine.
(§5) The sample has been eluted in phosphate buffered saline (1 g/5 ml) for 24 hours at 37° C. The eluted sample was diluted in the cell culture medium at different concentrations for the preliminary cytotoxicity screening on the cells aimed to decide the best concentration to test it without cytotoxic effects on the monocytes, in order to avoid false results. Cell medium exposed to the same experimental conditions were used as a negative control.
(§6) Following the results of the preliminary assay, the eluted sample was diluted directly in the cell medium at the two different dilutions in order to obtain the desired final concentrations in contact with the THP-1 cells in vitro. The exposure has been carried out for 24 h at 37° C. with 5% CO2.
(§7) After the incubation with the tested substance and the controls, cells are collected, checked under the microscope for their viability by staining with Trypan Blue dye and counting in a cell counter chamber, washed in PBS and then marked with a fluoresceinated anti-Intercellular Adhesion Molecule (CD54) or B7.2 (CD86) antibody and in both cases with a propidium iodide (PI) solution to simultaneously measure the percentage of dead cells. To this aim, a PI working solution (1 ml PI stock solution (1 mg PI/ml water) in 20 ml PI buffer (1 g glucose/l PBS without Ca/Mg)) is added to […]. A gate is set on the negative cells in order to exclude the dead cells. Only viable cells are included for analyses of CD54 or CD86 expression. After washing, to eliminate the excess antibody, the MFI (Mean Fluorescence Intensity) linked to the cells is evaluated by means of a flux cytofluorimeter (FACS, Fluorescence Activated Cell Sorter, Becton Dickinson, Mountain View, Calif.). This value is proportional to the expression of co-stimulatory molecules.
(§8) The results are expressed in terms of MFI (Mean Fluorescence Intensity).

[2] = test system: CD54 (Intercellular Adhesion Molecule); conditions: for CD54 % compared to Negative Control (CN): THP-1, 24 h; for CD54 MFI: THP-1, 24 h at 37° C.
Source text: as §1, §2, §3, §4, §5, §6, §7, §8

[3] = test system: THP-1 cells; format: cell-based; conditions: percent of living cells (PI negative), b192
Source text: Cell vitality: The percent of living cells (PI negative) must be above 80% in all samples.

Q: Which “CD86 % compared to CN” value ([1]; 4 μg/ml) does the source give for O.O.O.O.O.O.O=S(=O)([O-])[O-].[Ni+2] [Nickel Sulfate, Nickel Sulphate (NiSO4.6H2O)] here?
A: 27.95%

Q: What about the “CD86 MFI” value ([1]; 4 μg/ml) of the same compound?
A: 26.32

Q: And the “CD86 % compared to CN” value ([1]; 10 μg/ml)?
A: 146.23%

Q: What about the “CD86 MFI” value ([1]; 10 μg/ml) of the same compound?
A: 50.65

Q: And the “CD86 % compared to CN” value ([1]; 20 μg/ml)?
A: 399.03%

Q: What about the “CD86 MFI” value ([1]; 20 μg/ml) of the same compound?
A: 102.65

Q: What about the “CD54 % compared to Negative Control (CN)” value ([2]; 4 μg/ml) of the same compound?
A: 35.74%

Q: What about the “CD54 MFI” value ([2]; 4 μg/ml) of the same compound?
A: 33.65

Q: And the “CD54 % compared to Negative Control (CN)” value ([2]; 10 μg/ml)?
A: 63.61%

Q: What about the “CD54 MFI” value ([2]; 10 μg/ml) of the same compound?
A: 40.56

Q: And the “CD54 % compared to Negative Control (CN)” value ([2]; 20 μg/ml)?
A: 163.94%

Q: What about the “CD54 MFI” value ([2]; 20 μg/ml) of the same compound?
A: 65.43

Q: And the PI ([3]; 4 μg/ml)?
A: 88

Q: What about the PI ([3]; 10 μg/ml) of the same compound?
A: 86

Q: What about the PI ([3]; 20 μg/ml) of the same compound?
A: 86
